Reference: patent publication US20150025139A1, “INGENOL MEBUTATE IN COMBINATION WITH CRYOTHERAPY FOR THE TREATMENT OF ACTINIC KERATOSIS” (LEO Laboratories Limited, priority 2012, published 2015)

How the values were obtained:
[1] = Phase 3 study: adverse events related to trial medication; assay type: in vivo, human; conditions: face or scalp, week 11 data
Method: (§1) For safety, AEs and LSRs will be recorded. Local skin responses will be graded using a scale that was developed by the sponsor and used in the previous clinical studies. This is a defined grading scale to ensure that a clear and systematic assessment of LSRs is performed. The LSR Grading Scale employs a 0 to 4 scoring system for each category to be assessed with photographs and definitions of each grade. The LSR Grading Scale has been published previously.
Local skin responses will be converted into MedDRA preferred terms applying the following conversions seen below. These adverse events will be reported separately from adverse events recorded on the adverse event form in the CRF.
as §1, with “LSRs were” for “LSRs will be”, “responses were” for “responses will be”, “This was” for “This is”, “grade.” for “grade. The LSR Grading Scale has been published previously.”
The most common adverse effect is application site pain. None of the severe adverse events were related to trial medication. All adverse effects related to trial medication were resolved at week 11.

[2] = tested on: actinic keratosis (AK) lesions on the face or scalp; assay type: in vivo, human
Method: In the context of the present invention partial clearance of AKs are defined as 75% or greater reduction in the number of clinically visible AKs in the selected treatment area from baseline.
A Phase 3, multi-centre, randomised, two-arm, parallel group, double-blinded, vehicle-controlled, 12-month study is conducted (See FIG. 1). Eligible subjects with 4 to 8 clinically typical, visible and discrete AKs within a contiguous 25 cm^2 treatment area on the face and scalp will be randomised to one of two arms. Treatment Arm A will receive cryotherapy to all visible AKs (4-8 lesions, “baseline lesions”) in the selected treatment area then, after 2-4 weeks healing time, field treatment with ingenol mebutate (PEP005 Gel) 0.015% once daily for 3 consecutive days. Treatment Arm B will receive cryotherapy to all visible AKs (4-8 lesions, “baseline lesions”) in the selected treatment area then, after 3 weeks healing time, field treatment with vehicle gel once daily for 3 consecutive days.
Eligible subjects include male or female, at least 18 years of age, with 4 to 8 clinically typical, visible, and discrete AK lesions within a 25 cm^2 contiguous treatment area on the face or scalp. Exclusion criteria stipulate restrictions for prohibited treatments and procedures prior to study entry. This sample is representative of the population which will be treated for AK.
A Phase 3, multi-centre, randomised, two-arm, parallel group, double-blinded, vehicle-controlled, 12-month study is being conducted (See FIG. 1). Eligible subjects with 4 to 8 clinically typical, visible and discrete AKs within a contiguous 25 cm^2 treatment area on the face and scalp were randomised to one of two arms. Treatment Arm A received cryotherapy to all visible AKs (4-8 lesions, “baseline lesions”) in the selected treatment area then, after 2-4 weeks healing time, they received field treatment with ingenol mebutate (PEP005 Gel) 0.015% once daily for 3 consecutive days. […]

[3] = tested on: actinic keratosis, face and scalp; conditions: earlier Phase 3 studies, cited from earlier work
[4] = Phase 3 study: local skin responses (composite LSR score); assay type: in vivo, human
Method: as §1
The incidence and grade of LSRs in the LSR safety set will be summarized by treatment arm overall and at each visit by anatomical location. Local skin response grades will be summarized by frequency counts and descriptive statistics by treatment arm and visit for each of the six individual LSRs: erythema, flaking/scaling, crusting, swelling, vesiculation/pustulation, and erosion/ulceration.
A composite (sum) score will be obtained by summing the six individual LSR scores at each visit. The composite score and change from baseline will be summarized by treatment arm at each visit using descriptive statistics. The first visit at which the highest sum score is attained will be summarized by treatment arm. For those subjects whose LSR sum score increased in intensity from baseline, the first visit at which the LSR returned to the baseline intensity will be presented by treatment arm.
as §1, with “LSRs were” for “LSRs will be”, “responses were” for “responses will be”, “This was” for “This is”, “grade.” for “grade. The LSR Grading Scale has been published previously.”

Compound: C/C=C(/C)C(=O)O[C@H]1C(C)=C[C@]23C(=O)[C@@H](C=C(CO)[C@@H](O)[C@]12O)[C@H]1[C@@H](C[C@H]3C)C1(C)C [ingenol mebutate]
- tolerability of treatment after cryosurgery [1]: well tolerated
- percentage of patients with complete clearance (no clinically visible AKs) ([2]; 72 h): 60.5%
- percentage of patients with partial clearance (75% or greater reduction in AKs) ([2]; 72 h): 77.8%
- Median percent reduction from baseline in AK lesion count ([2]; week 11): 100.0%
- sustained clearance ([3]; 12 month following treatment): around 50%
- complete field clearance ([3]; face and scalp): 37-47%
- composite LSR score at baseline ([4]; baseline, before cryosurgery and topical treatment): 2.2
- mean (SD) composite LSR score at peak ([4]; peak at visit 3): 8.5 (4.7)
- mean composite LSR score, course after topical treatment ([4]; week 5, 2 weeks after topical treatment): return to a score similar to that of earlier visits
